In general, Kd refers to a measure of binding affinity in units of concentration.

Assay [1] concerns the target T1, NUAK family SNF1-like kinase 2 (Homo sapiens, UniProt Q9H093).
T1 sequence (Q9H093 whole entry): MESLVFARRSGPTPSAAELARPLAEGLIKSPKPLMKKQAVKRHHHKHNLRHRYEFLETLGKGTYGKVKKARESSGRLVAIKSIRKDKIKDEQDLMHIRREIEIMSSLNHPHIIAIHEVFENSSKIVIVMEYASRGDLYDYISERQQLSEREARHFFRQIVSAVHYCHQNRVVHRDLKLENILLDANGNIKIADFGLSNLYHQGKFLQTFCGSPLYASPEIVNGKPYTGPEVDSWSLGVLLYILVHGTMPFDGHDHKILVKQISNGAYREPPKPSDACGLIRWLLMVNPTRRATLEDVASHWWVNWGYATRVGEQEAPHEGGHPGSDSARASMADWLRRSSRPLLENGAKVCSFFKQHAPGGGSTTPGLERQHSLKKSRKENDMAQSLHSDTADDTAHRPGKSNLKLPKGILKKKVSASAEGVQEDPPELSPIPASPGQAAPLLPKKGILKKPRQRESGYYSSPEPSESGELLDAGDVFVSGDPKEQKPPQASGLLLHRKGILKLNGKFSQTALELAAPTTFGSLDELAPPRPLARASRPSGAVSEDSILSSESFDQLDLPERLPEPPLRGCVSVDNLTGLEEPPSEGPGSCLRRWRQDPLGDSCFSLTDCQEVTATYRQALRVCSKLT

The target in assay [2] is Dual specificity tyrosine-phosphorylation-regulated kinase 1A (Homo sapiens, UniProt Q13627).
For assay [3], the target named is T2, Exosome RNA helicase MTR4 (Homo sapiens, UniProt P42285).
T2 sequence (P42285 whole entry): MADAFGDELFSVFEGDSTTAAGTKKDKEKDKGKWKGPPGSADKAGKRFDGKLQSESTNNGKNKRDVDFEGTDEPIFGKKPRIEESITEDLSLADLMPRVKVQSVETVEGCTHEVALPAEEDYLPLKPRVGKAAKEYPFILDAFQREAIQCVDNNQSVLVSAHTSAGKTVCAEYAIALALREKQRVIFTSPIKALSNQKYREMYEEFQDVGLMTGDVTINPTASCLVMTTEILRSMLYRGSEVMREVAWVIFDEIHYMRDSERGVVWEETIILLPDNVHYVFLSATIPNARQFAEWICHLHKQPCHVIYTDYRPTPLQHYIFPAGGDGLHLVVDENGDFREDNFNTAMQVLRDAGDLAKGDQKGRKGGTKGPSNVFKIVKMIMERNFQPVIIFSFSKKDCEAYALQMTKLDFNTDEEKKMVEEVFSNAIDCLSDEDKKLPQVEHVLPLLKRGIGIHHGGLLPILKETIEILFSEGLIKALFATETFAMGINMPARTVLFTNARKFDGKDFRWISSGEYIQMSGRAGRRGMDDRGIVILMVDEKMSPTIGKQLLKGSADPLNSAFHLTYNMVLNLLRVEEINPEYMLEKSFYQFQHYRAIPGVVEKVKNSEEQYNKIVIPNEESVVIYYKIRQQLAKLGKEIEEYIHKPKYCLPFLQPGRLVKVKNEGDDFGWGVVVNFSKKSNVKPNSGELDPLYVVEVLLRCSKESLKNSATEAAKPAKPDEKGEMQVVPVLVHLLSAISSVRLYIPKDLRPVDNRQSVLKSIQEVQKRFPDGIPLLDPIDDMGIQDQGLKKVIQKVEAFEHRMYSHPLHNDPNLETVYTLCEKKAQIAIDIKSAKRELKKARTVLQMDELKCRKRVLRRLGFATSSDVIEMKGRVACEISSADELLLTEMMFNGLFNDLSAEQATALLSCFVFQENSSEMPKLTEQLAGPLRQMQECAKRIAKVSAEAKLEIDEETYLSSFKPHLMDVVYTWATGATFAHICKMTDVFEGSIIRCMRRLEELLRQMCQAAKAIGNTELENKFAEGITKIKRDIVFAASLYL

Assay [4] has as its target Fibroblast growth factor receptor 1 (Homo sapiens, UniProt P11362).
In assay [5] the target is T3, Probable ATP-dependent RNA helicase DDX6 (Homo sapiens, UniProt P26196).
T3 sequence (P26196 whole entry): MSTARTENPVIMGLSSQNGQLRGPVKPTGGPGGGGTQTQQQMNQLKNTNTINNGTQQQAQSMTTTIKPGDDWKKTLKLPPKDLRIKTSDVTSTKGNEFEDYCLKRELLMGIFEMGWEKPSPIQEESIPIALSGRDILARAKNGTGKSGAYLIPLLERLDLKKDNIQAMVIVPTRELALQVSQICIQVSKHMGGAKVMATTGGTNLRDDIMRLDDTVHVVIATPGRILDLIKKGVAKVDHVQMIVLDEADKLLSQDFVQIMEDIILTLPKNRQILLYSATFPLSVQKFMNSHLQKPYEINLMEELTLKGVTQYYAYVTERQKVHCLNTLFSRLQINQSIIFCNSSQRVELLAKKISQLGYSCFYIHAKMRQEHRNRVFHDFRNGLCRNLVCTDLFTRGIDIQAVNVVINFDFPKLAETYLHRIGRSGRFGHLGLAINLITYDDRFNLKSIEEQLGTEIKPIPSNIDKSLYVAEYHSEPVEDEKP

The target of assay [6] is cAMP-dependent protein kinase type II-alpha regulatory subunit (Homo sapiens, UniProt P13861).

Activity calls are given as the source filed them.
Note: in the data inactive means no Kd found up to 30 µM.

Sequence of cAMP-dependent protein kinase type II-alpha regulatory subunit (P13861 whole entry): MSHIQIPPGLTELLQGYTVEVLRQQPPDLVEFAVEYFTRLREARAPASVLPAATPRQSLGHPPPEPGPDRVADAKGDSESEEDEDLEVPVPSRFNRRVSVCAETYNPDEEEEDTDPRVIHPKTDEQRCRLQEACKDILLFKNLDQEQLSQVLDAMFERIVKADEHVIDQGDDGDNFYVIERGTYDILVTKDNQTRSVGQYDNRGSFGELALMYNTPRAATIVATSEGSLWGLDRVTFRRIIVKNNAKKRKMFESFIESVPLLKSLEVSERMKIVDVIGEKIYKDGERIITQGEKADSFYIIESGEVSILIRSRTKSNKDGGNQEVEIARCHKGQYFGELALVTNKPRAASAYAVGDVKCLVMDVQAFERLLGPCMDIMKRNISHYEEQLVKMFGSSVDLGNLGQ
Sequence of Fibroblast growth factor receptor 1 (P11362 whole entry): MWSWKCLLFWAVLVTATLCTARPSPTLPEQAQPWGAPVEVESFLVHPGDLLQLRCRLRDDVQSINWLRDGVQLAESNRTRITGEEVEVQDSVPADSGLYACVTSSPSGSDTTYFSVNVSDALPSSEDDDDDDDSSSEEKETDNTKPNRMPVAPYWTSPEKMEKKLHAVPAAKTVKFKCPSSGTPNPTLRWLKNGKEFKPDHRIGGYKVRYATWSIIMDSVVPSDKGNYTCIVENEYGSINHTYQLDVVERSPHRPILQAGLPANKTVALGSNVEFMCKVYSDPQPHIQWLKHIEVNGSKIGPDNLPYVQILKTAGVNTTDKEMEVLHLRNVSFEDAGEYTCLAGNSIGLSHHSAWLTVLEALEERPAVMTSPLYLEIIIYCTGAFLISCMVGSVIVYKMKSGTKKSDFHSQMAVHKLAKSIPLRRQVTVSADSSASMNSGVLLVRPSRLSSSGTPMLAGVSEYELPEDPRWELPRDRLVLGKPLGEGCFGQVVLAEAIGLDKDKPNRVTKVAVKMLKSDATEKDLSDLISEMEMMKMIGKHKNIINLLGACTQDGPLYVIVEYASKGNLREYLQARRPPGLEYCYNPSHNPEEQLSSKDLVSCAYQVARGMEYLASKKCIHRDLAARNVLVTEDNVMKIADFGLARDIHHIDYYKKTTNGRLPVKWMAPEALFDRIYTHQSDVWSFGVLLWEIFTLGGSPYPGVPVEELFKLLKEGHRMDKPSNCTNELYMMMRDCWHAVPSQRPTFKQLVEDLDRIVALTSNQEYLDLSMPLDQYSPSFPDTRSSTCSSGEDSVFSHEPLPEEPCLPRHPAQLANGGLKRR

`C[C@@H](Oc1cc(C(=O)Nc2ccc(C(=O)N3CCN(C)CC3)cc2)nnc1N)c1c(Cl)ccc(F)c1Cl`: the Kd in assay [1], in assay [2], in assay [3], in assay [4] and in assay [5] was > 30 µM (inactive) throughout.
With `CCNC(=O)C#Cc1ccc2c(c1)NC(=O)/C2=C(\Nc1ccc(CN(C)C)cc1)c1ccccc1`, the Kd in assay [2] is > 30 µM (inactive); in assay [6] it was > 30 µM (inactive); in assay [3], > 30 µM (inactive); in assay [4], 2.51 µM (active); in assay [5] it was > 30 µM (inactive).
`Cc1nc2cc(-c3nn(C(C)C)c4ncnc(N)c34)ccc2o1`: the Kd in assay [1], in assay [2], in assay [6], in assay [3] and in assay [5] was > 30 µM (inactive) throughout.
For the compound `COc1cc(Nc2ncc3c(n2)-c2ccc(Cl)cc2C(c2c(F)cccc2OC)=NC3)ccc1C(=O)O` [ALISERTIB], the Kd in assay [1], in assay [6], in assay [3] and in assay [5] was > 30 µM (inactive) in each case.
Consider `O=C(Nc1c[nH]nc1-c1nc2cc(CN3CCOCC3)ccc2[nH]1)NC1CC1` [AT-9283], for which the Kd in assay [1] was > 30 µM (inactive); in assay [2], 2.45 µM (active); in assay [6], > 30 µM (inactive); in assay [3] it was > 30 µM (inactive); in assay [5], > 30 µM (inactive).
As for `CNC(=O)c1ccccc1Sc1ccc2c(/C=C/c3ccccn3)n[nH]c2c1` [AXITINIB], the Kd in assay [6], in assay [3] and in assay [5] was > 30 µM (inactive) each time.
Turning to `NC(=O)Nc1cc(-c2cccc(F)c2)sc1C(=O)N[C@H]1CCCNC1` [AZD-7762], the dissociation constant (Kd) in assay [2] was 1.68 µM (active); in assay [6], > 30 µM (inactive); in assay [3], > 30 µM (inactive); in assay [4] it was > 30 µM (inactive); in assay [5], > 30 µM (inactive).
In the case of `CC(C)(C)c1nc(-c2cccc(NS(=O)(=O)c3c(F)cccc3F)c2F)c(-c2ccnc(N)n2)s1` [DABRAFENIB], the Kd in assay [1], in assay [6], in assay [3], in assay [4] and in assay [5] was > 30 µM (inactive) throughout.
Turning to `Cn1cc(C2=C(c3cn(C4CCN(Cc5ccccn5)CC4)c4ccccc34)C(=O)NC2=O)c2ccccc21` [ENZASTAURIN], the Kd in assay [6], in assay [3] and in assay [5] was > 30 µM (inactive) in each case.
Regarding `Cc1nc2cc(-n3ncc(C(=O)c4cc5ccccc5[nH]4)c3N)ccc2[nH]1` [FGFR INHIBITOR DEBIO 1347], the Kd in assay [1], in assay [2], in assay [6], in assay [3] and in assay [5] was > 30 µM (inactive) throughout.
In the case of `C[C@@H](Oc1cc(-n2cnc3ccc(CN4CCN(C)CC4)cc32)sc1C(N)=O)c1ccccc1C(F)(F)F` [GSK-461364], the Kd in assay [6], in assay [3] and in assay [5] was > 30 µM (inactive) in each case.
Consider `CCn1cc(-c2ccnc3[nH]c(-c4cccc(CN(C)C)c4)cc23)c(-c2ccc(NC(=O)N(C)C)cc2)n1` [GSK-1070916], for which the Kd in assay [1], in assay [2], in assay [6], in assay [3] and in assay [5] was > 30 µM (inactive) each time.
Turning to `Cc1[nH]c(/C=C2\C(=O)Nc3ccccc32)c(C)c1CCC(=O)O` [ORANTINIB], the Kd in assay [6], in assay [3] and in assay [5] was > 30 µM (inactive) throughout.
For `NC(=O)c1c(OCc2c(F)cc(Br)cc2F)nsc1NC(=O)NCCCCN1CCCC1` [OSI-632], the Kd in assay [1], in assay [6], in assay [3] and in assay [5] was > 30 µM (inactive) each time.
As for `CCCCCCCCCCCCCCCCCCOP(=O)([O-])OC1CC[N+](C)(C)CC1` [PERIFOSINE], the Kd in assay [1], in assay [2], in assay [3], in assay [4] and in assay [5] was > 30 µM (inactive) each time.
With `CC(=O)NCC(=O)N1[C@@H]2CC[C@H]1c1ccc(Nc3ncc(C(F)(F)F)c(NC4CCC4)n3)cc12` [PF-03814735], the Kd in assay [1] was 0.024 µM (active); in assay [6] it was > 30 µM (inactive); in assay [3], > 30 µM (inactive); in assay [5] it was > 30 µM (inactive).
With `CNC(=O)c1cc(Oc2ccc(NC(=O)Nc3cc(C(C)(C)C)nn3-c3ccc4ncccc4c3)c(F)c2)ccn1` [REBASTINIB], the Kd in assay [1], in assay [2], in assay [6], in assay [3] and in assay [5] was > 30 µM (inactive) each time.
As for `O=C(NOCCO)c1cc(CN2OCCCC2=O)c(F)c(F)c1Nc1ccc(I)cc1F` [RO-4987655], the Kd in assay [6], in assay [3] and in assay [5] was > 30 µM (inactive) in each case.
For the compound `N#CC[C@H](C1CCCC1)n1cc(-c2ncnc3[nH]ccc23)cn1` [RUXOLITINIB], the Kd in assay [6], in assay [3] and in assay [5] was > 30 µM (inactive) throughout.
`CO[C@H]1C[C@@H]2CC[C@@H](C)[C@@](O)(O2)C(=O)C(=O)N2CCCC[C@H]2C(=O)O[C@H]([C@H](C)C[C@@H]2CC[C@@H](O)[C@H](OC)C2)CC(=O)[C@H](C)/C=C(\C)[C@@H](O)[C@@H](OC)C(=O)[C@H](C)C[C@H](C)/C=C/C=C/C=C/1C` [SIROLIMUS]: the Kd in assay [2], in assay [6], in assay [3], in assay [4] and in assay [5] was > 30 µM (inactive) each time.
For the compound `O=C1NC(=O)[C@@H](c2cn3c4c(cccc24)CCC3)[C@@H]1c1c[nH]c2ccccc12` [TIVANTINIB], the Kd in assay [2], in assay [6], in assay [3], in assay [4] and in assay [5] was > 30 µM (inactive) each time.
On to `C[C@@H](NC(=O)c1ncnc(N)c1Cl)c1ncc(C(=O)Nc2cc(C(F)(F)F)c(Cl)cn2)s1` [TOVORAFENIB], for which the Kd in assay [2] is 3.22 µM (active); in assay [6] it was > 30 µM (inactive); in assay [3], > 30 µM (inactive); in assay [4] it was > 30 µM (inactive).
